Reference: patent US4159373A, “7-Acyl-3-(sulfonic acid and sulfamoyl substituted tetrazolyl thiomethyl) cephalosporins” (SmithKline Corporation, priority 1978, dated 1979)
Values after ≈ are worked out from the molar mass of the structure shown. Read-outs that look alike come from different tables or passages of the source.

Experiments:
E. coli 12140 = assay: In vivo mouse protection, E. coli 12140; conditions: Table 2, E. coli 12140, read-out: ED50 in vivo
Entero. cloacae HH 31254 = assay: MIC in vitro; assay type: cell-based; conditions: Enterobacter cloacae
Kleb. pneumo. SK 4200 = assay: MIC in vitro; assay type: cell-based, Kleb. pneumoniae; conditions: Klebsiella pneumoniae, read-out: MIC in vitro
Protocol: (§1) The compounds of Formula I have exceptional antibacterial activity against both Gram-positive and Gram-negative organisms. Minimum inhibitory concentrations (MIC's) ranged from 0.2 to <200 μg./ml. in in vitro testing.

E. coli SK 12140 = assay: MIC in vitro; assay type: cell-based; conditions: Escherichia coli, E. coli SK 12140
Protocol: as §1

shigella HH 117 = assay: MIC in vitro; assay type: cell-based; conditions: HH117; Table 1; shigella HH 117; read-out: MIC in vitro
Protocol: as §1

Strep. Faecalis HH 34358 = assay: MIC in vitro; assay type: cell-based; conditions: Table 1, Strep. Faecalis HH 34358; for MIC: Enterococcus faecalis, read-out: MIC in vitro
Protocol: as §1

Proteus morgani 179 = assay: MIC in vitro; assay type: cell-based; conditions: for MIC: Table 1, read-out: MIC in vitro
Protocol: as §1

S. aureus HH 127 = assay: MIC in vitro; assay type: cell-based; conditions: Staphylococcus aureus, S. aureus HH 127
Protocol: as §1

E. coli HH 33779 = assay: MIC in vitro; assay type: cell-based; conditions: E. coli HH 33779; for MIC: Escherichia coli, HH33779, Table 1, read-out: MIC in vitro
Protocol: as §1

Salmonella ATCC 12176 = assay: MIC in vitro; assay type: cell-based; conditions: for MIC: Salmonella, ATCC12176, Table 1, read-out: MIC in vitro
Protocol: as §1

Kleb. pneumo. 4200 = assay: In vivo mouse protection, Kleb. pneumo. 4200; conditions: read-out: ED50 in vivo
Serra. marc ATCC 13880 = assay: MIC in vitro; assay type: cell-based, Serratia marcescens; conditions: for MIC: Serratia marcescens
Protocol: as §1

Psuedo. sp. HH 63 = assay: MIC in vitro; assay type: cell-based, Pseudo. aeruginosa; conditions: Pseudomonas aeruginosa; Table 1; Psuedo. sp. HH 63; read-out: MIC in vitro
Protocol: as §1

[1] = test system: Entero. aerog. ATCC 13048; assay: MIC in vitro; assay type: cell-based, Enterobacter aerogenes; conditions: Klebsiella aerogenes, ATCC13048, Table 1; Entero. aerog. ATCC 13048; read-out: MIC in vitro
Protocol: as §1

Kleb. pneumo. SK 1200 = assay: MIC in vitro; assay type: cell-based, Kleb. pneumoniae; conditions: Klebsiella pneumoniae, read-out: MIC in vitro
Protocol: as §1

S. aureus SK 23390 = assay: MIC in vitro; assay type: cell-based; conditions: Staphylococcus aureus
Protocol: as §1

S. villaluz = assay: MIC in vitro; assay type: cell-based; conditions: Table 1
Protocol: as §1

[2] = Escherichia coli, 12140, sc, s.c.
[3] = HH31254, Table 1, read-out: MIC in vitro
[4] = HH31254, read-out: MIC in vitro, Table 1
[5] = SK12140, Table 1, read-out: MIC in vitro
[6] = HH127, read-out: MIC in vitro, Table 1
[7] = HH127, Table 1, read-out: MIC in vitro
[8] = sc, Table 2, Kleb. pneumo. 4200, s.c.
[9] = ATCC13880, Table 1, Serra. marc ATCC 13880, read-out: MIC in vitro
[10] = Escherichia coli, 12140, po, p.o.
[11] = SK23390, Table 1, S. aureus SK 23390, read-out: MIC in vitro
[12] = po, Table 2, Kleb. pneumo. 4200, p.o.

Compound	ED50 (E. coli 12140; [2]) [mg/kg]	MIC (Entero. cloacae HH 31254; [3]) [µg/mL]	MIC (Entero. cloacae HH 31254; [4]) [µg/mL]	MIC (Kleb. pneumo. SK 4200; Table 1, Kleb. pneumo. SK 4200) [µg/mL]	MIC (E. coli SK 12140; [5]) [µg/mL]	MIC (shigella HH 117) [µg/mL]	MIC (Strep. Faecalis HH 34358) [µg/mL]	MIC (Proteus morgani 179) [µg/mL]	MIC (S. aureus HH 127; [6]) [µg/mL]	MIC (S. aureus HH 127; [7]) [µg/mL]	MIC (E. coli HH 33779) [µg/mL]	MIC (Salmonella ATCC 12176) [µg/mL]	ED50 (Kleb. pneumo. 4200; [8]) [mg/kg]	MIC (Serra. marc ATCC 13880; [9]) [µg/mL]	MIC (Psuedo. sp. HH 63) [µg/mL]	MIC [1] [µg/mL]	ED50 (E. coli 12140; [10]) [mg/kg]	MIC (S. aureus SK 23390; [11]) [µg/mL]	ED50 (Kleb. pneumo. 4200; [12]) [mg/kg]	MIC (Kleb. pneumo. SK 1200; Table 1, Kleb. pneumo. SK 1200) [µg/mL]	also measured
O=C(O)C1=C(CSc2nnnn2CS(=O)(=O)O)CS[C@@H]2C(NC(=O)[C@H](O)c3ccccc3)C(=O)N12 (stereo partly drawn) [I, 7-D-Mandelamido-3-(1-sulfomethyltetrazol-5-ylthiomethyl)-3-cephem-4-carboxylic acid]	1.56	3 (≈ 5.53 µM)	0.8 (≈ 1.47 µM)	0.8 (≈ 1.47 µM)	0.8 (≈ 1.47 µM)	0.4 (≈ 0.737 µM)	50 (≈ 92.2 µM)	3 (≈ 5.53 µM)	3.1 (≈ 5.71 µM)	6 (≈ 11.1 µM)	3.1 (≈ 5.71 µM)	0.8 (≈ 1.47 µM)	0.28	12.5 (≈ 23 µM)	> 200						MIC in vitro (Strep. Faecalis HH 34358): 100 µg/mL (≈ 184 µM); MIC in vitro (Proteus morgani 179; Table 1): 3.1 µg/mL (≈ 5.71 µM); MIC in vitro (E. coli HH 33779; Table 1): 1.6 µg/mL (≈ 2.95 µM); MIC in vitro (Salmonella ATCC 12176; Table 1): 0.4 µg/mL (≈ 0.737 µM); MIC in vitro (Serra. marc ATCC 13880; Table 1, Serra. marc ATCC 13880): 13 µg/mL (≈ 24 µM)
O=C(O)C1=C(CSc2nnnn2CCS(=O)(=O)O)CS[C@@H]2C(NC(=O)[C@H](O)c3ccccc3)C(=O)N12 (stereo partly drawn) [II, 7-D-Mandelamido-3-[1-(2-sulfoethyl)tetrazol-5-ylthiomethyl]-3-cephem-4-carboxylic acid]	0.58	3.1 (≈ 5.57 µM)		0.8 (≈ 1.44 µM)	0.8 (≈ 1.44 µM)	0.4 (≈ 0.719 µM)	50 (≈ 89.8 µM)	6.3 (≈ 11.3 µM)		1.6 (≈ 2.87 µM)	1.6 (≈ 2.87 µM)	0.8 (≈ 1.44 µM)	0.39	25 (≈ 44.9 µM)	> 200	6.3 (≈ 11.3 µM)	35	0.8 (≈ 1.44 µM)	18.6		MIC (Kleb. pneumo. SK 1200): 0.4 µg/mL (≈ 0.719 µM)
NS(=O)(=O)CCn1nnnc1SCC1=C(C(=O)O)N2C(=O)C(NC(=O)[C@H](O)c3ccccc3)[C@H]2SC1 (stereo partly drawn) [III, 7-D-mandelamido-3-[1-(2-sulfamoylethyl)tetrazol-5-ylthiomethyl]-3-cephem-4-carboxylic acid]	0.7		0.8 (≈ 1.44 µM)	1.6 (≈ 2.88 µM)	0.8 (≈ 1.44 µM)	0.2 (≈ 0.36 µM)	12.5 (≈ 22.5 µM)	3.1 (≈ 5.58 µM)		1.6 (≈ 2.88 µM)	1.6 (≈ 2.88 µM)	0.4 (≈ 0.72 µM)	0.68		> 200	3.1 (≈ 5.58 µM)	25	0.2 (≈ 0.36 µM)	21.5	0.8 (≈ 1.44 µM)	MIC (Serra. marc ATCC 13880; ATCC13880, read-out: MIC in vitro): 6.3 µg/mL (≈ 11.3 µM)
O=C(O)C1=C(CSc2nnnn2CCCCCS(=O)(=O)O)CS[C@@H]2C(NC(=O)[C@H](O)c3ccccc3)C(=O)N12 (stereo partly drawn) [IV, 7-D-Mandelamido-3-[1-(5-sulfopentyl)tetrazol-5-ylthiomethyl]-3-cephem-4-carboxylic acid]	18		0.8 (≈ 1.34 µM)	1.6 (≈ 2.67 µM)	1.6 (≈ 2.67 µM)	0.8 (≈ 1.34 µM)	50 (≈ 83.5 µM)	3.1 (≈ 5.18 µM)	3.1 (≈ 5.18 µM)		6.3 (≈ 10.5 µM)	3.1 (≈ 5.18 µM)	15.7	100 (≈ 167 µM)	> 200	6.3 (≈ 10.5 µM)	> 50	0.8 (≈ 1.34 µM)		1.6 (≈ 2.67 µM)	MIC (S. villaluz): 12.5 µg/mL (≈ 20.9 µM)
NS(=O)(=O)CCn1nnnc1SCC1=C(C(=O)O)N2C(=O)C(NC(=O)CSC(F)(F)F)C2SC1 (stereo not shown) [IX, 7-Trifluoromethylthioacetamido-3-[1-(2-sulfamoylethyl)tetrazol-5-ylthiomethyl]-3-cephem-4-carboxylic acid]	1.56		0.8 (≈ 1.42 µM)			0.2 (≈ 0.355 µM)	12.5 (≈ 22.2 µM)	200 (≈ 355 µM)		0.4 (≈ 0.71 µM)	1.6 (≈ 2.84 µM)	0.4 (≈ 0.71 µM)		100 (≈ 177 µM)	> 200	1.6 (≈ 2.84 µM)	44			0.4 (≈ 0.71 µM)	MIC (Kleb. pneumo. SK 4200): 0.8 µg/mL (≈ 1.42 µM); MIC (S. villaluz): 6.3 µg/mL (≈ 11.2 µM); MIC (E. coli SK 12140; SK12140, read-out: MIC in vitro, Table 1): 0.8 µg/mL (≈ 1.42 µM); MIC (S. aureus SK 23390; SK23390, read-out: MIC in vitro): 0.2 µg/mL (≈ 0.355 µM)
